The subject of data set [1] is TPA-induced mouse ear edema. Kind of data set: Anti-inflammatory activity, TPA-induced mouse ear edema. The class given is in vivo, ICR mice. The note with it: for TPA-induced mouse ear edema: 0.5% in acetone. The protocol: In order to investigate the anti-inflammatory activity of the derivatives of the present invention, the animal experiments were performed as below. Seven-week-old male ICR mice were treated with TPA (12-O-tetradecanoylphorbol 13-acetate, […]) in the right ear. […] The same experiment was performed by treating hydrocortisone used as a treatment agent for inflammation as a control at the same concentration.
Subsequently, secondly, the adenosine derivative compound of the present invention was treated after 6 hours from TPA treatment. Twenty-four hours after TPA treatment, the animals were euthanized using the cervical dislocation method. Then, a right ear sample was obtained using a 6 mm diameter punch. The activity could be confirmed by weighing using a microbalance. The inhibition rate (%) was calculated using the following Equation 1.

For data set [2], the target named is T1, adenosine A3 receptor in rats expressed in Chinese hamster ovary (CHO) cells (Rattus norvegicus, UniProt P28647).
T1 construct: expressed in transfected cells; host or cells: CHO
T1 sequence (P28647 1-320): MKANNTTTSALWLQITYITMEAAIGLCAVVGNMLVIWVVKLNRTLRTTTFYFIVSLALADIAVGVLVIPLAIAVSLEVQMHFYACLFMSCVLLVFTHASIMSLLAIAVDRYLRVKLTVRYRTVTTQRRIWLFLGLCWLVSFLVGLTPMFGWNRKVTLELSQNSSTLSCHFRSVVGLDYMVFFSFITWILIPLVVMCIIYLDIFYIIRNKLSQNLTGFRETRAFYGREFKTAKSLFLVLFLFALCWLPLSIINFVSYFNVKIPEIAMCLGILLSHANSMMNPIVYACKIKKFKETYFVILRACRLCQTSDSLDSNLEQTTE
Kind of data set: Binding affinity for rat adenosine A3 receptor expressed in CHO cells.

Data set [3] has as its target T2, human adenosine A3 receptor (Homo sapiens, UniProt P0DMS8).
T2 construct: expressed in transfected cells; host or cells: CHO (ATCC CCL-61)
T2 sequence (P0DMS8 1-318): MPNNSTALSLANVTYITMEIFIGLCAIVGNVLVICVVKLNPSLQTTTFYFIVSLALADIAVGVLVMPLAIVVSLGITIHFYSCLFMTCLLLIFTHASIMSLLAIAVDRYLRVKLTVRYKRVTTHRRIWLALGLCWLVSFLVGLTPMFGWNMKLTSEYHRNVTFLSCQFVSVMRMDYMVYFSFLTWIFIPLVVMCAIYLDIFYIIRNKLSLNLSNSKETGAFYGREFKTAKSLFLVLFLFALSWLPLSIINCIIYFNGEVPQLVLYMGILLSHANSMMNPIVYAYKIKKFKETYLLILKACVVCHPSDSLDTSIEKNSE
Kind of data set: Antagonistic effect and cAMP inhibition test on adenosine A3 receptor (CHO cells, Cl-IB-MECA, Schild analysis). Format: cell-based. The conditions noted are these: different concentrations.

In data set [4] the target is T3, human adenosine A2B receptor (Homo sapiens, UniProt P29275).
T3 sequence (P29275 1-332): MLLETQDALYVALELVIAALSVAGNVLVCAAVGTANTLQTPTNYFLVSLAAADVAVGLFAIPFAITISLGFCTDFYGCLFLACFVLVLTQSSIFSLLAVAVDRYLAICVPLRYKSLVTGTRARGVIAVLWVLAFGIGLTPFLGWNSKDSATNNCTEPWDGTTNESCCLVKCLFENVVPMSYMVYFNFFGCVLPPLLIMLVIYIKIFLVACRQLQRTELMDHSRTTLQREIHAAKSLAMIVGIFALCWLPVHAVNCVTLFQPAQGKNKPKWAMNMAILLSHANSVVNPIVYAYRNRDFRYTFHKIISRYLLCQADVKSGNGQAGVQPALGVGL
Kind of data set: Agonist or antagonist activity at human adenosine A2B receptor. The class given is biochemical.

The target in data set [5] is T4, human adenosine A3 receptor (hA3) (Homo sapiens, UniProt P0DMS8).
T4 construct: expressed in transfected cells; host or cells: CHO (ATCC CCL-61)
T4 sequence (P0DMS8 1-318): T2 sequence (P0DMS8 1-318)
As to the kind of experiment: Binding affinity for human adenosine A3 receptor (CHO cells, [125I]AB-MECA). The conditions noted are these: read-out: K(nM) hA3.
Method: The Chinese hamster ovary (CHO, ATCC; American Cell Line No. CCL-61) cells expressing the adenosine A1 and A3 receptors were cultured in F-12 (Gibco Co., USA) medium supplemented with 10% fetal bovine serum (FBS) and penicillin/streptomycin (100 units/ml and 100 μg/ml) at 37° C. and 5% carbon dioxide. […] Various concentrations of the derivatives of the present invention are first dissolved in dimethylsulfoxide (DMSO) and then diluted with buffer solution and the final concentration of DMSO should not exceed 1%, and the cells are incubated in a 37° C. thermostat for 1 hour and the cells were rapidly filtered under reduced pressure using a cell collector (TOMTEC Co., USA). Subsequently, the test tube was washed three times with 3 ml buffer, and radioactivity was determined using a γ-counter. […] Specific binding was calculated by subtracting non-specific binding from total binding. From the measured specific binding, the bonding affinity of each sample of the various receptors was determined.

Data set [6] has as its target T5, human adenosine A1 receptor (hA1) (Homo sapiens, UniProt P30542).
T5 construct: expressed in transfected cells; host or cells: CHO (ATCC CCL-61)
T5 sequence (P30542 1-326): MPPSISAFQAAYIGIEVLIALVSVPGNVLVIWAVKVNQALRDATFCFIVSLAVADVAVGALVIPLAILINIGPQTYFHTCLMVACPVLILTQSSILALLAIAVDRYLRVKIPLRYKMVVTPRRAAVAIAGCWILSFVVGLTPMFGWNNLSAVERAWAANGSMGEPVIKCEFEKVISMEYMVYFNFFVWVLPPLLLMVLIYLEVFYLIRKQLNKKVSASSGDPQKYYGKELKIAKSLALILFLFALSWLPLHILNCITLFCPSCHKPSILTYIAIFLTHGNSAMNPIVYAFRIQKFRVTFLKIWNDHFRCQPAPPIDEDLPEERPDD
Kind of data set: Binding affinity for human adenosine A1 receptor (CHO cells, [3H]CCPA). The note with it: test concentration not given.

Data set [7] concerns the target T6, human adenosine A2A receptor (hA2A) (Homo sapiens, UniProt P29274).
T6 construct: expressed in transfected cells; host or cells: HEK 293
As to the kind of experiment: Binding affinity for human adenosine A2A receptor (HEK 293 cells, [3H]CGS-21680). The conditions noted are these: test concentration not given.

Data set [8] relates to extracellular matrix proteins (Fibronectin, SMA and MYOC). As to the kind of experiment: Anti-fibrotic effect on trabecular meshwork tissue (immunostaining). The class given is in vivo, C57BL/6J mice. The note with it: Example 2 oral 20 mg/kg once a day and 10 mg/kg twice a day; acetazolamide 4.17 mg/kg once a day. The protocol:
In Experimental Example 10, the ocular tissues of each laboratory animal after measurement of intraocular pressure were extracted and sectioned and immunostaining using antibody was performed to confirm the expression of extracellular matrix proteins (Fibronectin, SMA and MYOC) and the results are shown in FIG. 13. In FIG. 13, Normal represents the trabecular meshwork of the animal which dexamethasone was not treated with in Experimental Example 10, Control represents the trabecular meshwork tissue of the animal to which only the excipient was administered in Experimental Example 10, Acetazolamide represents the trabecular meshwork tissue of the animal to which acetazolamide was administered in Experimental Example 10. Fluorescently stained tissue was observed under fluorescence microscope under the same conditions (magnification 200×, exposure time 1 sec).

The test system of the next data set is MMP (MMP2, MMP9). Kind of data set: MMP enzyme protein and mRNA expression in trabecular meshwork tissue. The class given is in vivo, C57BL/6J mice. The note with it: Example 2 oral 20 mg/kg once a day and 10 mg/kg twice a day; acetazolamide 4.17 mg/kg once a day. The protocol: (§1) In Experimental Example 10, the expression amounts of these proteins and mRNAs in MMP and TIMP enzymes were measured for the eye tissues of the respective laboratory animals which the measurement of the intraocular pressure was completed, and the results are shown in FIG. 14 to FIG. 17. FIG. 14 and FIG. 15 show protein expression amounts of MMP (MMP2, MMP9) and TIMP (TIMP 1, TIMP2) enzymes, respectively. FIG. 16 and FIG. 17 show mRNA expression levels. In FIG. 14 to FIG. 17, Normal represents the expression level of the animal to which the dexamethasone was not treated in Experimental Example 10, Control represents the expression level of the animal to which only the excipient was administered in Experimental Example 10, and Acetazolamide represents the expression level of the animal to which acetazolamide was administered in Experimental Example 10.

In another data set the test system is TIMP (TIMP 1, TIMP2). Kind of data set: TIMP enzyme protein and mRNA expression in trabecular meshwork tissue. The conditions noted are these: Example 2 oral 20 mg/kg once a day and 10 mg/kg twice a day; acetazolamide 4.17 mg/kg once a day. Format: in vivo, C57BL/6J mice. The protocol: as §1
[9] abbreviates: 0.5% in mixed solvent of DMSO and acetone (1:9).
[10] abbreviates: 0.5% in mixed solvent of distilled water and acetone (1:4).

T6 sequence (P29274 whole entry): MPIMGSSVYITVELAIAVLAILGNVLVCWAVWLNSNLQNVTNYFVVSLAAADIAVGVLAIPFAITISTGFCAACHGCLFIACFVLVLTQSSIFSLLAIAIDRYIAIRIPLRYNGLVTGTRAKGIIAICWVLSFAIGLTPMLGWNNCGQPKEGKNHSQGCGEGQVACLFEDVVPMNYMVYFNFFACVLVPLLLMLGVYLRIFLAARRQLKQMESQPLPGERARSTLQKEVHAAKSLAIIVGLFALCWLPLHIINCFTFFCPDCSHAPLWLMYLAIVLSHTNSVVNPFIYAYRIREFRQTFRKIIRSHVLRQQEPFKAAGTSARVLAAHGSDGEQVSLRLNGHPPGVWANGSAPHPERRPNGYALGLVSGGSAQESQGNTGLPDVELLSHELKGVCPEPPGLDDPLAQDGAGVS

As usually defined, the melting point is the temperature of the solid-liquid transition. `O[C@@H]1[C@H](O)CO[C@H]1n1cnc2c(NCc3cccc(Br)c3)nc(Cl)nc21` [Example 15, (2R,3R,4R)-2-(6-(3-bromobenzylamino)-2-chloro-9H-purin-9-yl)tetrahydrofuran-3,4-diol] displayed a melting point of 181.5 to 181.7 °C. In data set [1] (setting [9]), this compound showed an inflammation inhibition rate of 59%.

For `COc1ccc(Cl)cc1CNc1nc(Cl)nc2c1ncn2[C@@H]1SC[C@@H](O)[C@H]1O` [Example 6, (2R,3R,4S)-2-(2-chloro-6-(5-chloro-2-methoxybenzylamino)-9H-purin-9-yl)tetrahydrothiophene-3,4-diol], the melting point is 188.8 to 189.8 °C. The compound also yielded an inflammation inhibition rate in [1] (setting [10]) of 34%.

Regarding `O[C@@H]1[C@H](O)CS[C@H]1n1cnc2c(NCc3ccccc3Cl)nc(Cl)nc21` [Example 5, (2R,3R,4S)-2-(2-chloro-6-(2-chlorobenzylamino)-9H-purin-9-yl) tetrahydrothiophene-3,4-diol], the melting point fell in the range of 198.7 to 199.7 °C. This compound also returned an inflammation inhibition rate in data set [1] (setting [10]) of 17%.

Consider `O[C@@H]1[C@H](O)CS[C@H]1n1cnc2c(NCc3cccc(F)c3)nc(Cl)nc21` [Example 1, (2R,3R,4S)-2-(2-chloro-6-(3-fluorobenzylamino)-9H-purin-9-yl)tetrahydrothiophene-3,4-diol], for which the melting point was 183.2 to 183.5 °C.

In the case of `O=C(O)c1cccc(CNc2nc(Cl)nc3c2ncn3[C@@H]2SC[C@H](O)[C@@H]2O)c1` [Example 9, 3-((2-chloro-9-((2R,3S,4R)-3,4-dihydroxytetrahydrothiophen-2-yl)-9H-purin-6-ylamino)methyl)benzoic acid], the melting point is 254 to 256.9 °C.

With `O[C@@H]1[C@H](O)CS[C@H]1n1cnc2c(NCc3cccc(Br)c3)ncnc21` [Example 13, (2R,3R,4S)-2-(6-(3-bromobenzylamino)-9H-purin-9-yl)tetrahydrothiophene-3,4-diol], the melting point lay within 183 to 184 °C.

`COc1ccccc1CNc1nc(Cl)nc2c1ncn2[C@@H]1SC[C@@H](O)[C@H]1O` [Example 7, (2R,3R,4S)-2-(2-chloro-6-(2-methoxybenzylamino)-9H-purin-9-yl)tetrahydrothiophene-3,4-diol] had a melting point of 188 °C. In data set [1] (setting [10]), this compound showed an inflammation inhibition rate of 53%.

Turning to `O[C@@H]1[C@H](O)CS[C@H]1n1cnc2c(NCc3cccc(I)c3)nc(Cl)nc21` [Example 4, (2R,3R,4S)-2-(2-chloro-6-(3-iodobenzylamino)-9H-purin-9-yl)tetrahydrothiophene-3,4-diol], the Ki in data set [2] amounted to 3.89 ± 1.15 nM. Besides, the “effect of the agonist Cl-IB-MECA in CHO cells treated with the compound” value in [3] is “inhibited depending on the concentration”. For the same compound, the “activity as an agonist or an antagonist at human adenosine A2B receptor” value in data set [4] is reported as “did not show activity as an agonist or an antagonist”. The “TPA-induced mouse ear edema” value in data set [1] is “reduced by a small amount”; in [1] (listed as compound 4), “had an effect of reducing edema”.

As for “(2R,3R,4S)-2-(2-chloro-6-(naphthalen-1-ylmethylbenzylamino)-9H-purin-9-yl)tetrahydrothiophene-3,4-diol [Example 8]”, in [5], the Ki came out at 24.8 ± 8.1 nM. The “% hA1” value in data set [6] is recorded as 22.0%. The “% hA2A” value in data set [7] is −8.3%.

`O[C@@H]1[C@H](O)CS[C@H]1n1cnc2c(NCc3cccc(Br)c3)nc(Cl)nc21` [Example 3, (2R,3R,4S)-2-(2-chloro-6-(3-bromobenzylamino)-9H-purin-9-yl)tetrahydrothiophene-3,4-diol] came in with a melting point of 184 to 185 °C. Further, the “TPA-induced mouse ear edema” value in data set [1] is reported as “reduced by a small amount”.

Turning to `O[C@@H]1[C@H](O)CS[C@H]1n1cnc2c(NCc3cccc(I)c3)ncnc21` [Example 14, (2R,3R,4S)-2-(6-(3-iodobenzylamino)-9H-purin-9-yl) tetrahydrothiophene-3,4-diol], the melting point fell in the range of 198.8 to 199.8 °C.

Turning to `CC(=O)Nc1nnc(S(N)(=O)=O)s1` [acetazolamide, reference compound], the “expression of fibronectin, SMA and MYOC protein in trabecular meshwork tissue” value in data set [8] was “increased expression”. Further, the “protein and mRNA expression levels of MMP enzyme compared with the normal group” value with MMP (MMP2, MMP9) was “significantly decreased”. Besides, the “protein and mRNA expression levels of TIMP enzyme compared with the normal group” value with TIMP (TIMP 1, TIMP2) is reported as “significantly increased”.

Turning to `O[C@@H]1[C@H](O)CO[C@H]1n1cnc2c(NCc3cccc(I)c3)nc(Cl)nc21` [Example 16, (2R,3R,4R)-2-(6-(3-iodobenzylamino)-2-chloro-9H-purin-9-yl)tetrahydrofuro-3,4-diol], the melting point fell in the range of 195.5 to 195.8 °C. The compound further gave an inflammation inhibition rate in [1] (setting [9]) of 79%.
